From PubChem BioAssay AID1918933 (Molecular Pharmacology Branch, DTP, NCI, 2023)
“And” between values parts separate entries of the source, which are not always exact repeats. Equal values may be shown once.

System: 186277-243-T-J2-PDC complex spheroid viability
Test: Anticancer human tumor 186277-243-T-J2-PDC patient-derived colon adenocarcinoma cell line growth inhibition
Conditions: for viability, T/C: stronger effect = lower value
Method in brief: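 Complex spheroids of tumor cells with HUVEC and human MSCs, exposed to iadademstat combined with other agents. Each agent tested in half-log steps from near clinical Cmax (else 10 microM top), DMSO ≤0.25%.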

[1] = curve of first compound, second compound 0.1 µM
[2] = curve of first compound, second compound 0.316 µM
[3] = curve of first compound, second compound 1 µM
[4] = curve of first compound, second compound 3.16 µM
[5] = curve of first compound, second compound 10 µM
[6] = second compound 0.1 µM, first compound 0.0316 µM
[7] = second compound 0.1 µM, first compound 0.1 µM
[8] = second compound 0.1 µM, first compound 0.316 µM
[9] = second compound 0.1 µM, first compound 1 µM
[10] = second compound 0.1 µM, first compound 3.16 µM
[11] = second compound 0.1 µM, first compound 10 µM
[12] = second compound 0.316 µM, first compound 0.0316 µM
[13] = second compound 0.316 µM, first compound 0.1 µM
[14] = second compound 0.316 µM, first compound 0.316 µM
[15] = second compound 0.316 µM, first compound 1 µM
[16] = second compound 0.316 µM, first compound 3.16 µM
[17] = second compound 0.316 µM, first compound 10 µM
[18] = second compound 1 µM, first compound 0.0316 µM
[19] = second compound 1 µM, first compound 0.1 µM
[20] = second compound 1 µM, first compound 0.316 µM
[21] = second compound 1 µM, first compound 1 µM
[22] = second compound 1 µM, first compound 3.16 µM
[23] = second compound 1 µM, first compound 10 µM
[24] = second compound 3.16 µM, first compound 0.0316 µM
[25] = second compound 3.16 µM, first compound 0.1 µM
[26] = second compound 3.16 µM, first compound 0.316 µM
[27] = second compound 3.16 µM, first compound 1 µM
[28] = second compound 3.16 µM, first compound 3.16 µM
[29] = second compound 3.16 µM, first compound 10 µM
[30] = second compound 10 µM, first compound 0.0316 µM
[31] = second compound 10 µM, first compound 0.1 µM
[32] = second compound 10 µM, first compound 0.316 µM
[33] = second compound 10 µM, first compound 1 µM
[34] = second compound 10 µM, first compound 3.16 µM
[35] = second compound 10 µM, first compound 10 µM
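Also: 7 day exposure to compounds.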
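For viability, T/C in this document: 100% = DMSO vehicle control viability.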

SMILES | IC50 [1] [nM] | IC50 [2] [nM] | IC50 [3] [nM] | IC50 [4] [nM] | IC50 [5] [nM] | viability, T/C [6] [%] | viability, T/C [7] [%] | viability, T/C [8] [%] | viability, T/C [9] [%] | viability, T/C [10] [%] | viability, T/C [11] [%] | viability, T/C [12] [%] | viability, T/C [13] [%] | viability, T/C [14] [%] | viability, T/C [15] [%] | viability, T/C [16] [%] | viability, T/C [17] [%] | viability, T/C [18] [%] | viability, T/C [19] [%] | viability, T/C [20] [%] | also measured
CC1COCCN1c1cc(C2(S(C)(=N)=O)CC2)nc(-c2ccnc3[nH]ccc23)n1 (configuration not stated) + NC1CC1c1ccc(-c2cccc(O)c2)cc1 | 1060 | 1140 | 1270 | 1190 | 872 | 102 | 99.8 | 99.6 | 52.1 | 9.5 | 5.47 | 95.4 | 97.8 | 92.2 | 55 | 10.5 | 5.49 | 108 | 108 | 105 | viability, T/C [21]: 59.5%; viability, T/C [22]: 12.5%; viability, T/C [23]: 5.36%; viability, T/C [24]: 104%; viability, T/C [25]: 104%; viability, T/C [26]: 109%; viability, T/C [27]: 57.5%; viability, T/C [28]: 11.6%; viability, T/C [29]: 6.19%; viability, T/C [30]: 106%; viability, T/C [31]: 89.6%; viability, T/C [32]: 92.7%; viability, T/C [33]: 44.3%; viability, T/C [34]: 8%; viability, T/C [35]: 4.85%
COc1cc(C2c3cc4c(cc3C(OC3OC5COC(C)OC5C(O)C3O)C3COC(=O)C23)OCO4)cc(OC)c1O (configuration not stated) |  |  |  |  |  |  |  |  |  |  |  |  |  |  |  |  |  |  |  |  | viability, T/C (compound 0.00949 µM): 101% and 112%; viability, T/C (compound 0.03 µM): 100% and 124%; viability, T/C (compound 0.0949 µM): 92.8% and 98.9%; viability, T/C (compound 0.3 µM): 75.2% and 70.9%; viability, T/C (compound 0.949 µM): 61.2% and 39%; viability, T/C (compound 3 µM): 40.3% and 17.3%; IC50 (curve of compound): 1700 nM and 618 nM
CC(C)c1c(-c2ccccc2)nc2c(C#N)c[nH]n2c1=O + NC1CCC(NC2CC2c2ccccc2)CC1 | > 10000 | > 10000 | > 10000 | > 10000 | > 10000 | 112 | 118 | 114 | 105 | 114 | 103 | 108 | 125 | 115 | 115 | 108 | 96.8 | 110 | 110 | 108 | viability, T/C [21]: 112%; viability, T/C [22]: 109%; viability, T/C [23]: 106%; viability, T/C [24]: 112%; viability, T/C [25]: 119%; viability, T/C [26]: 112%; viability, T/C [27]: 121%; viability, T/C [28]: 107%; viability, T/C [29]: 105%; viability, T/C [30]: 104%; viability, T/C [31]: 101%; viability, T/C [32]: 107%; viability, T/C [33]: 110%; viability, T/C [34]: 101%; viability, T/C [35]: 90.5%
